# Test results as given in ChEMBL document CHEMBL5046276 (J Med Chem, 2022).
# Calls of active or inactive are those of the source. No cut-off for these calls is given here.
# Columns and labels:
# Plasmodium yoelii [1] = assay: Antimalarial activity against blood stage Plasmodium yoelii infected in BALB/c mouse assessed as parasite killing by measuring RBC cells in blood smear at 60 mg/kg, ip qd for 5 days by microscopic analysis; format: functional, organism-based; settings: Erythrocyte, time 5.0 day
# [2] = Metabolic stability in mouse liver microsomes assessed as half life at […] incubated for 45 mins in presence of NADPH by LC/MS analysis; format: ADME, Microsome; settings: for t1/2: microsomes, 0.75 h, 10000 µM
# [3] = Cytotoxicity against human HepG2 cells incubated for 72 hrs by CCK-8 assay
# [4] = Selectivity index, ratio of IC50 for cytotoxicity against HEK293T cells to IC50 for antimalarial activity against asexual blood stage wild-type Plasmodium falciparum 3D7; format: toxicity, cell-based; settings: human, read-out: Ratio IC50
# [5] = Selectivity index, ratio of IC50 for cytotoxicity against human HepG2 cells to IC50 for antimalarial activity against asexual blood stage wild-type Plasmodium falciparum 3D7; format: toxicity, cell-based; settings: read-out: Ratio IC50
# Plasmodium yoelii [6] = assay: Antimalarial activity against blood stage Plasmodium yoelii infected in BALB/c mouse assessed as parasitemia at 60 mg/kg, ip qd for 5 days and measured after 14 days; format: functional; settings: time 14 day
# Plasmodium falciparum [7] = assay: Antimalarial activity against asexual blood stage sulfadoxine-pyrimethamine/mefloquine-resistant Plasmodium falcipuram CP286 assessed as parasite growth inhibition incubated for 72 hrs by SYBR Green I staining based fluorescence analysis; format: functional, organism-based; settings: CP286, 72 h
# Plasmodium falciparum [8] = assay: Antimalarial activity against asexual blood stage chloroquine-resistant Plasmodium falciparum Dd2 assessed as parasite growth inhibition incubated for 72 hrs by SYBR Green I staining based fluorescence analysis; format: functional, organism-based; settings: Dd2, 72 h
# Plasmodium falciparum [9] = assay: Antimalarial activity against asexual blood stage chloroquine-resistant Plasmodium falcipuram GB4 assessed as parasite growth inhibition incubated for 72 hrs by SYBR Green I staining based fluorescence analysis; format: functional, organism-based; settings: GB4, 72 h
# Plasmodium falciparum [10] = assay: Antimalarial activity against asexual blood stage wild-type Plasmodium falciparum 3D7 assessed as parasite growth inhibition incubated for 72 hrs by SYBR Green I staining based fluorescence analysis; format: functional, organism-based; settings: 3D7, 72 h
# [11] = Cytotoxicity against HEK293T cells incubated for 72 hrs by CCK-8 assay; settings: human
# Plasmodium falciparum [12] = assay: Antimalarial activity against asexual blood stage quinine-resistant Plasmodium falcipuram C2A assessed as parasite growth inhibition incubated for 72 hrs by SYBR Green I staining based fluorescence analysis; format: functional, organism-based
# [13] = Metabolic stability in mouse liver microsomes assessed as intrinsic clearance at […] incubated for 45 mins in presence of NADPH by LC/MS analysis; format: ADME, Microsome; settings: read-out: CLH
# Plasmodium yoelii [14] = assay: Antimalarial activity against blood stage Plasmodium yoelii infected in BALB/c mouse assessed as parasitemia at 60 mg/kg, ip qd for 5 days and measured after 16 days; format: functional; settings: time 16 day
# Plasmodium falciparum [15] = assay: Antimalarial activity against blood stage asynchronous Plasmodium falcipuram 3D7 assessed as parasite growth inhibition by measuring parasitemia incubated for 6 to 12 hrs followed by compound washout and replacement with fresh medium without compounds and measured after 4 days by flow cytometry; format: functional, organism-based; settings: dose 10-100 nM, time 6-12 hrs
# [16] = Toxicity in BALB/c mouse infected with blood stage Plasmodium yoelii assessed as animal death at 60 mg/kg, ip qd for 5 days measured from day 2 post compound treatment; format: organism-based; settings: in vivo, 120 h, time 5 day
# [17] = Apparent clearance in BALB/c mouse at 5 mg/kg, ip measured after upto 24 hrs by LC-MS/MS analysis; format: ADME, organism-based; settings: in vivo, read-out: CLz/F (converted)
# [18] = Apparent volume of distribution in BALB/c mouse at 5 mg/kg, ip measured after upto 24 hrs by LC-MS/MS analysis; format: ADME, organism-based; settings: in vivo, read-out: Vz/F
# [19] = In vivo inhibition of C-terminal glmS fused HDAC1 in Plasmodium falcipuram 3D7 assessed as inhibition of parasite growth incubated for 4 hrs followed by compound washout and replacement with fresh medium with compounds measured after 68 hrs by SYBR Green I staining based fluorescence analysis; format: functional, organism-based, Plasmodium falciparum
# Plasmodium falciparum [20] = assay: Inhibition of Plasmodium falcipuram HDAC assessed as effect on parasite histone deacetylation level at 5 to 20 nM incubated for 4 hrs by Western blot analysis; settings: dose 5-20 nM
# Plasmodium falciparum [21] = assay: Antimalarial activity against synchronized Plasmodium falcipuram 3D7 infected in human RBC assessed as ring stage parasite killing at 40 nM treated […] and incubated for 12 hrs followed by compound washout and replacement with fresh medium without compounds and measured at 50 hrs post infection by Geimsa staining based microscopy; format: functional, organism-based
# Plasmodium falciparum [22] = assay: In vivo inhibition of C-terminal TY1 fused HDAC1 in Plasmodium falcipuram 3D7 assessed as inhibition of parasite growth by measuring downregulation of RBC invasion-related genes expression level by RNA-seq analysis; format: functional, organism-based
# Plasmodium berghei = assay: Antimalarial activity against liver stage transgenic Plasmodium berghei ANKA sporozoites transfected with GFP-Luc infected in BALB/c mouse assessed as reduction in liver stage parasite infection at 30 mg/kg, iv measured for 1 to 4 days post-administration by IVIS spectrum in vivo imaging analysis; format: functional, organism-based; settings: time 1-4 day
# Plasmodium falciparum [23] = assay: (§1) Antimalarial activity against synchronized Plasmodium falcipuram 3D7 infected in human RBC assessed as irreversible inhibition of parasite growth at schizont stage at 40 nM treated 29 to 41 hpi incubated for 12 hrs followed by compound washout and replacement with fresh medium without compounds and measured after 4 days by flow cytometry; format: functional, organism-based
# [24] = Toxicity in BALB/c mouse infected with blood stage Plasmodium yoelii assessed as animal death at 60 mg/kg, ip qd for 5 days and measured on day 28; format: organism-based; settings: in vivo, 672 h, time 28 day
# Plasmodium falciparum [25] = assay: Inhibition of Plasmodium falcipuram recombinant HDAC1 using HDAC-Glo I/II as substrate at 50 to 800 nM preincubated for 90 mins by luminescence based microplate reader analysis; settings: dose 50-800 nM
# [26] = Toxicity in BALB/c mouse infected with blood stage Plasmodium yoelii assessed as animal death at 30 mg/kg, ip qd for 5 days and measured upto 60 days; format: organism-based; settings: in vivo, 1440 h, time 60 day
# Plasmodium falciparum [27] = assay: as §1, with “ring” for “schizont”, “at 5” for “29”, “17” for “41”; format: functional, organism-based
# Plasmodium falciparum [28] = assay: Antimalarial activity against blood stage asynchronous Plasmodium falcipuram 3D7 assessed as parasite growth inhibition by measuring parasitemia at 10 to 100 nM incubated for 12 to 24 hrs by flow cytometry; format: functional, organism-based; settings: dose 10-100 nM, time 12-24 hrs
# [29] = Tmax in BALB/c mouse at 5 mg/kg, ip measured after upto 24 hrs by LC-MS/MS analysis; format: ADME, organism-based; settings: in vivo
# Plasmodium falciparum [30] = assay: Antimalarial activity against blood stage asynchronous Plasmodium falcipuram 3D7 assessed as suppression of parasite reproduction by measuring parasitemia at 10 nM incubated for 24 hrs followed by compound washout and replacement with fresh medium without compounds and measured after 4 days by flow cytometry; format: functional
# [31] = Cmax in BALB/c mouse at 5 mg/kg, ip measured upto 24 hrs by LC-MS/MS analysis; format: ADME, organism-based; set-up: route intraperitoneal, dose 5 mg/kg, time <=24; settings: in vivo
# Plasmodium yoelii [32] = assay: Antimalarial activity against blood stage Plasmodium yoelii infected in BALB/c mouse assessed as parasite recrudescence by measuring parasitemia at 60 mg/kg, ip qd for 5 days and measured on 11 to 26 days; format: functional; settings: time 11-26 day
# Plasmodium falciparum [33] = assay: In vivo inhibition of C-terminal glmS fused HDAC2 in Plasmodium falcipuram 3D7 assessed as inhibition of parasite growth incubated for 4 hrs followed by compound washout and replacement with fresh medium with compounds measured after 68 hrs by SYBR Green I staining based fluorescence analysis; format: functional, organism-based
# Plasmodium falciparum [34] = assay: In vivo inhibition of C-terminal TY1 fused HDAC2 in Plasmodium falcipuram 3D7 assessed as inhibition of parasite growth incubated for 4 hrs followed by compound washout and replacement with fresh medium with compounds measured after 68 hrs by SYBR Green I staining based fluorescence analysis; format: functional, organism-based
# [35] = In vivo inhibition of C-terminal TY1 fused HDAC1 in Plasmodium falcipuram 3D7 assessed as inhibition of parasite growth incubated for 4 hrs followed by compound washout and replacement with fresh medium with compounds measured after 68 hrs by SYBR Green I staining based fluorescence analysis; format: functional, organism-based, Plasmodium falciparum
# Plasmodium falciparum [36] = assay: In vivo inhibition of C-terminal glmS fused HDAC1 in Plasmodium falcipuram 3D7 assessed as inhibition of parasite growth by measuring downregulation of RBC invasion-related genes expression level by RNA-seq analysis; format: functional, organism-based
# [37] = biological target: T1, NAD-dependent protein deacetylase sirtuin-2 (Homo sapiens, UniProt Q8IXJ6); assay: Inhibition of human C-terminal His-tagged SIRT2 (50 to 356 residues) expressed in Escherichia coli using Ac-peptide as substrate incubated for 4 hrs followed by trypsin addition and further incubated for 2 hrs
# T1 sequence (Q8IXJ6 whole entry): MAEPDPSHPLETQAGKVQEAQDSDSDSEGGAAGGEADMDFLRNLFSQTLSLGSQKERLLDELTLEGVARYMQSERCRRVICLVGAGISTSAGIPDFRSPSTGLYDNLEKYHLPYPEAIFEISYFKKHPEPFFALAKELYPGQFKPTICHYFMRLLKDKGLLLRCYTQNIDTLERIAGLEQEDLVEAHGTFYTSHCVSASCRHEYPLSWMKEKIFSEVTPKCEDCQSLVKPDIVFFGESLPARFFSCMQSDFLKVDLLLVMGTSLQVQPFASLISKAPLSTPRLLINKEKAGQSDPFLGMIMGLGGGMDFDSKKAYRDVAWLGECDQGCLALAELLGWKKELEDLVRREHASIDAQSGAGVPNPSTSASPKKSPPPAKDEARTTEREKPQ
smiles,measurement,setting,value
Cl.Cn1cc(CN2CC3(CCN(c4ncc(C(=O)NO)cn4)C3)C2)c2ncccc21,Activity,Plasmodium yoelii [1],inactive
same,t1/2,[2],179.79 min
same,IC50 at 72 h,[3],20 µM
same,selectivity ratio,[4],> 7490
same,selectivity ratio,[5],> 7490
same,Activity,Plasmodium yoelii [6],46.37%
same,IC50,Plasmodium falciparum [7],13.1 nM
same,IC50,Plasmodium falciparum [8],3.08 nM
same,IC50,Plasmodium falciparum [9],4.47 nM
same,IC50,Plasmodium falciparum [10],2.67 nM
same,IC50 at 72 h,[11],> 20 µM
same,IC50,Plasmodium falciparum [12],3.76 nM
Cl.Cn1c(CN2CC3(CCN(c4ncc(C(=O)NO)cn4)C3)C2)nc2ccccc21,Activity,Plasmodium yoelii [1],inactive
same,half-life,[2]; liver microsomes,134 min
same,CLint scaled,[13],40.7 mL/min/kg
same,IC50 at 72 h,[3],> 9.45 µM
same,selectivity ratio,[4],5070
same,selectivity ratio,[5],> 5140
same,IC50,Plasmodium falciparum [7],9.87 nM
same,Activity,Plasmodium yoelii [14],16.57%
same,IC50,Plasmodium falciparum [8],3.99 nM
same,IC50,Plasmodium falciparum [9],4.64 nM
same,IC50,Plasmodium falciparum [10],1.84 nM
same,IC50 at 72 h,[11],9.33 µM
same,IC50,Plasmodium falciparum [12],3.8 nM
Cn1cc(CNCC2CCN(c3ncc(C(=O)NO)cn3)CC2)c2ccccc21 [QUISINOSTAT],Activity,Plasmodium falciparum [15],Dose dependent effect
same,t1/2,[2],629.7 min
same,Activity,[16],Toxic
same,CL/F,[17],462 mL/min/kg
same,Vd/F,[18],245 L/kg
same,IC50,[19],5.59 nM
same,Activity,Plasmodium falciparum [20],Active
same,Activity,Plasmodium falciparum [21],Active
same,inhibition,Plasmodium falciparum [22],Active
same,Activity,Plasmodium berghei,inactive
same,Activity,Plasmodium falciparum [23],Active
same,IC50 at 72 h,[3],0.03 µM
same,Activity,[24],Toxic
same,inhibition,Plasmodium falciparum [25],Active
same,Activity,[26],Toxic
same,Activity,Plasmodium falciparum [27],Active
same,IC50,Plasmodium falciparum [8],7.09 nM
same,Activity,Plasmodium falciparum [28],Active
same,Tmax,[29],4.8 min
same,IC50,Plasmodium falciparum [9],1.75 nM
same,Activity,Plasmodium falciparum [30],100%
same,Cmax,[31],89 ng/mL
same,Activity,Plasmodium yoelii [32],0.05%
same,inhibition,Plasmodium falciparum [33],Active
same,IC50,Plasmodium falciparum [10],4.01 nM
same,IC50 at 72 h,[11],0.06 µM
same,inhibition,Plasmodium falciparum [34],Active
same,IC50,Plasmodium falciparum [12],2.52 nM
same,IC50,[35],19.1 nM
same,inhibition,Plasmodium falciparum [36],Active
Cc1ccc(C(=O)Nc2ccc(S(=O)(=O)O)c3cc(S(=O)(=O)O)cc(S(=O)(=O)O)c23)cc1NC(=O)c1cccc(NC(=O)Nc2cccc(C(=O)Nc3cc(C(=O)Nc4ccc(S(=O)(=O)O)c5cc(S(=O)(=O)O)cc(S(=O)(=O)O)c45)ccc3C)c2)c1 [SURAMIN],IC50,[37],5.44 µM
